pEC50, pIC50: −log10 of the molar value. Counter-ions that a name gives are not always drawn.

One experiment concerns the target T1, Wee1 kinase (Homo sapiens, UniProt P30291).
T1 construct: made in house; host or cells: Sf9 insect cells (recombinant baculovirus)
The experiment is described as follows: Wee1 kinase inhibitory effect (Pharmacological Test 1). It is filed as biochemical. To be noted: GST-tagged Wee1 kinase, Poly(Lys, Tyr) substrate, 10 μM ATP, 30° C. for 30 minutes. An excerpt:
Pharmacological Test 1 (Wee1 Kinase Inhibitory Effect)
(1) Purification of Wee1 Kinase
A cDNA of Wee1 kinase with […] (GST) fused at the amino terminal thereof was inserted into a baculovirus expression vector to construct a recombinant baculovirus, with which cells of an insect cell line Sf9 were infected to overexpress the target protein. The infected cells were collected and lysed, and then the GST-tagged Wee1 kinase protein was adsorbed to a glutathione column and eluted from the column with glutathione, and the active fraction was desalted in a desalting column to give a purified enzyme.
(2) Measurement of Wee1 Kinase Activity
In measurement of the Wee1 kinase activity, a synthetic peptide, Poly(Lys, Tyr) hydrobromide (Lys:Tyr (4:1)) purchased from Sigma was used as the substrate.
The amount of the reaction mixture was 21.1 μL; and the composition of the reaction buffer was 50 mM Tris-HCl buffer (pH 7.4)/10 mM magnesium chloride/1 mM dithiothreitol. The purified Wee1 kinase, 2.5 μg of the substrate peptide, 10 μM of non-labeled adenosine triphosphate (ATP) and 1 μCi of [γ-^33P]-labeled ATP (2500 Ci/mmol or more) were added to the reaction buffer, and the resulting mixture was incubated at 30° C. for 30 minutes. Thereafter, 10 μL of 350 mM phosphate buffer was added to the reaction system to stop the reaction. The substrate peptide was adsorbed on a P81 paper filter 96-well plate and the plate was washed several times with 130 mM phosphate buffer, and the radioactivity thereof was counted using a liquid scintillation counter. The [γ-^33P]-labeled ATP was purchased from Amersham Bioscience, Ltd.
The addition of a test compound to the reaction system was carried out by preparing a series of dilutions of the compound with dimethyl sulfoxide (DMSO) and adding 1.1 μL of each dilution to the reaction system. As a control, 1.1 μL of DMSO was added to the reaction system.

The subject of experiment [1] is Cdc2 (Cdk1) tyrosine-15 phosphorylation. The experiment is described as follows: Inhibitory effect on Cdc2 (Cdk1) tyrosine-15 phosphorylation in NCI-H1299 cells (Pharmacological Test 2). To be noted: Homo sapiens, camptothecin 200 nM 16 hours, then test compound with nocodazole 8 hours, ELISA, read-out: Cdc2-Y15 Phosphorylation-Inhibitory Effect (H1299, +camptothecin) (EC50). The format is cell-based. The source says: Pharmacological Test 2 (Method for Determining Drug Effect Using Cells (Inhibitory Effect on Cdc2 (Cdk1) Tyrosine-15 Phosphorylation))
Fetal bovine serum (FBS) was purchased from Morgate, Inc.; an RPMI-1640 medium and a DMEM medium were purchased from Invitrogen, Inc.; camptothecin was purchased from Sigma Co.; gemcitabine was purchased from Eli Lilly Japan K.K.; nocodazole and protease inhibitor cocktail were purchased from Sigma Co.; a rabbit anti-Cdc2 antibody and a mouse anti-Cdc2 antibody were purchased from Santa Cruz Biotechnology, Inc.; a rabbit anti-tyrosine-15-phosphorylated Cdc2 antibody and a horseradish peroxidase-labeled anti-mouse IgG antibody were purchased from Cell Signaling Technology, Inc.; and Sure Blue Reserve TMB peroxidase substrate was purchased from Kirkegaard & Perry Laboratories, Inc.
A human non-small cell lung cancer cell line (NCI-H1299) and a human colon cancer cell line (WiDr) can be obtained from American Type Culture Collection (ATCC).
In the method using NCI-H1299 cells, the cells were suspended in an RPMI-1640 medium supplemented with 10% FBS, and 100 μL of the resulting cell suspension was dispensed in a Nunclon Delta treated 96-well plastic plate purchased from Nunc, Inc. at a density of 2000 cells per well, and the plate was incubated overnight at 37° C. under an atmosphere of 5% CO2 and 95% air. Camptothecin was dissolved in dimethyl sulfoxide (DMSO) and further the resulting solution was diluted with an RPMI-1640 medium supplemented with 10% FBS. Then, 50 μL of the diluted solution was added to each well of the plate in which the cells were seeded in advance such that the final concentration of camptothecin was 200 nM, and the plate was incubated at 37° C. under an atmosphere of 5% CO2 and 95% air for 16 hours. A test compound was serially diluted with DMSO, and further diluted with an RPMI-1640 medium supplemented with 10% FBS containing 4000 nM nocodazole. Then, 50 μL of the test compound solution was added to each well of the plate in which the cells treated with camptothecin were seeded, and the plate was incubated at 37° C. under an atmosphere of 5% CO2 and 95% air for 8 hours. Then, the culture medium was removed from each well and 100 μL of a cell lysis buffer was added to each well, and the plate was shaken at 4° C. for 2 hours, and thereafter the liquid in the plate was frozen at −80° C. and then thawed, which was used as a lysed cell solution. Cdc2 and tyrosine-15-phosphorylated Cdc2 in this lysed cell solution were measured by an enzyme-linked immunosorbent assay (ELISA method), and a ratio of tyrosine-15-phosphorylated Cdc2 to Cdc2 was calculated to determine a 50% effective concentration (EC50, nM) of the test compound for inhibition of phosphorylation in cells. The cell lysis buffer as used herein is an aqueous solution containing 20 mM HEPES (pH 7.5), 150 mM sodium chloride, 1 mM disodium ethylenediamine tetraacetate, 0.1% polyoxyethylene (10) octylphenyl ether, 1% protease inhibitor cocktail, 1 mM dithiothreitol, 2 mM sodium orthovanadate, 10 mM sodium fluoride and 10 mM glycerol diphosphate. The measurement of Cdc2 by the ELISA method was carried out as follows. 50 μL of a solution of a rabbit anti-Cdc2 antibody obtained by diluting the antibody to 200 times with 50 mM carbonate-bicarbonate buffer (pH 9.6) was dispensed into each well of a 96-well Maxisorb immunoplate purchased from Nunc, Inc., and the immunoplate was let stand overnight at 4° C. to immobilize the antibody thereto. Subsequently, each well was washed three times with phosphate buffered saline (PBS), and 300 μL of PBS containing 5% bovine serum albumin (5% BSA/PBS) was added to each well, and then, the immunoplate was let stand at room temperature for 2 hours. […]

T1 sequence (P30291 whole entry): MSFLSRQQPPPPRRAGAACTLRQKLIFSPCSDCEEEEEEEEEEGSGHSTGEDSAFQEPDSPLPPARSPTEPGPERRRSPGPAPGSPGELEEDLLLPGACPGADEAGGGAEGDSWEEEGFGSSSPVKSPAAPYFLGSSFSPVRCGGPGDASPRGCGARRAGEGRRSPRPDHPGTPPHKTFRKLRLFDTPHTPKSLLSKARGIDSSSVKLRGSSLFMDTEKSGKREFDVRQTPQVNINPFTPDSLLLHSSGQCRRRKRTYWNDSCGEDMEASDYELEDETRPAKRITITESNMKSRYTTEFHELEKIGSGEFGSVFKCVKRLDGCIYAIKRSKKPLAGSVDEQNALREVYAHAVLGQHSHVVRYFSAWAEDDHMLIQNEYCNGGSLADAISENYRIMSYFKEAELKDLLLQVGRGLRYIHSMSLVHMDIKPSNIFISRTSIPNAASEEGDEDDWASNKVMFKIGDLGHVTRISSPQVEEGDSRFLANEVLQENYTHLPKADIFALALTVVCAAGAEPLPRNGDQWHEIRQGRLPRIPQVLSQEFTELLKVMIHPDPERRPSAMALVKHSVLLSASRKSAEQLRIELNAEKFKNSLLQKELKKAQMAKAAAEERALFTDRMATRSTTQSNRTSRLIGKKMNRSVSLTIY

Compound `CN1Cc2ccc(Nc3ncc4c(=O)n5c(nc4n3)c3ccccc3n5-c3ncccn3)cc2C1` [Example 102, 2-[(2-methyl-2,3-dihydro-1H-isoindol-5-yl)amino]-7-(pyrimidin-2-yl)pyrimido[4′,5′:4,5]pyrimido[1,2-b]indazol-5(7H)-one] had a pIC50 at Wee1 kinase of 7.72.

Compound `Cc1cc(Nc2ncc3c(=O)n4c(nc3n2)c2ccccc2n4-c2ccsc2)ccc1N1CCN(C)CC1` [Example 55, 2-{[3-methyl-4-(4-methylpiperazin-1-yl)phenyl]amino}-7-(3-thienyl)pyrimido[4′,5′:4,5]pyrimido[1,2-b]indazol-5(7H)-one] gave a pIC50 on Wee1 kinase of 7.89.

The compound `CN(C)CCc1ccc(Nc2ncc3c(=O)n4c(nc3n2)c2ccccc2n4-c2ncccn2)cc1` [Example 92, 2-({4-[2-(dimethylamino)ethyl]phenyl}amino)-7-(pyrimidin-2-yl)pyrimido[4′,5′:4,5]pyrimido[1,2-b]indazol-5(7H)-one] gave a pIC50 on Wee1 kinase of 7.34.

At Wee1 kinase, `CN1CCN(c2ccc(Nc3ncc4c(=O)n5c(nc4n3)c3ccc(O)cc3n5-c3ccccn3)cc2)CC1` [Example 150, 9-hydroxy-2-{[4-(4-methylpiperazin-1-yl)phenyl]amino}-7-(pyridin-2-yl)pyrimido[4′,5′:4,5]pyrimido[1,2-b]indazol-5(7H)-one trifluoroacetate] had a pIC50 of 8.07.

As to `CN1CCN(c2ccc(Nc3ncc4c(=O)n5c(nc4n3)c3ccccc3n5-c3ccoc3)cc2)CC1` [Example 147, 7-(furan-3-yl)-2-{[4-(4-methylpiperazin-1-yl)phenyl]amino}pyrimido[4′,5′:4,5]pyrimido[1,2-b]indazol-5(7H)-one], the pIC50 at Wee1 kinase was 8.24. In addition, in experiment [1], the pEC50 is 6.77.

On Wee1 kinase, `CN1CCc2ccc(Nc3ncc4c(=O)n5c(nc4n3)c3ccccc3n5-c3ccccn3)cc2C1` [Example 44, 2-[(2-methyl-1,2,3,4-tetrahydroisoquinolin-7-yl)amino]-7-(pyridin-2-yl)pyrimido[4′,5′:4,5]pyrimido[1,2-b]indazol-5(7H)-one] had a pIC50 of 8.41. Moreover, the negative logarithm of the EC50 (pEC50) in experiment [1] was 7.42.

Compound `Cc1cc(Nc2ncc3c(=O)n4c(nc3n2)c2ccccc2n4-c2ncccn2)ccc1N1CCN(C)CC1` [Example 61, 2-{[3-methyl-4-(4-methylpiperazin-1-yl)phenyl]amino}-7-(pyrimidin-2-yl)pyrimido[4′,5′:4,5]pyrimido[1,2-b]indazol-5(7H)-one] had a pIC50 at Wee1 kinase of 7.92. Also, the pEC50 in experiment [1] was 6.89.

Compound `CN(C)CCN1CCOc2cc(Nc3ncc4c(=O)n5c(nc4n3)c3ccccc3n5-c3nccs3)ccc21` [Example 143, 2-({4-[2-(dimethylamino)ethyl]-3,4-dihydro-2H-1,4-benzoxazin-7-yl}amino)-7-(1,3-thiazol-2-yl)pyrimido[4′,5′:4,5]pyrimido[1,2-b]indazol-5(7H)-one] gave a pIC50 against Wee1 kinase of 7.82. Besides, the negative-log EC50 (pEC50) in experiment [1] is 6.72.

With `CN1CCN(c2ccc(Nc3ncc4c(=O)n5c(nc4n3)c3ccccc3n5-c3ccccn3)cc2)CC1` [Example 23, 2-{[4-(4-methylpiperazin-1-yl)phenyl]amino}-7-(pyridin-2-yl)pyrimido[4′,5′:4,5]pyrimido[1,2-b]indazol-5(7H)-one], the pIC50 against Wee1 kinase is 7.52.

On to `CN1CCc2ccc(Nc3ncc4c(=O)n5c(nc4n3)c3ccccc3n5-c3nccs3)cc2C1` [Example 137, 2-[(2-methyl-1,2,3,4-tetrahydroisoquinolin-7-yl)amino]-7-(1,3-thiazol-2-yl)pyrimido[4′,5′:4,5]pyrimido[1,2-b]indazol-5(7H)-one], for which the negative-log IC50 (pIC50) against Wee1 kinase is 8.21. Also, the pEC50 in experiment [1] was 7.77.

Regarding `Cc1cc(Nc2ncc3c(=O)n4c(nc3n2)c2ccccc2n4-c2ccccn2)ccc1N1CCN(C)CC1` [Example 21, 2-{[3-methyl-4-(4-methylpiperazin-1-yl)phenyl]amino}-7-(pyridin-2-yl)pyrimido[4′,5′:4,5]pyrimido[1,2-b]indazol-5(7H)-one], the pIC50 on Wee1 kinase is 7.49. Further, the pEC50 in experiment [1] was 6.95.

The compound `CN1CCc2cc(Nc3ncc4c(=O)n5c(nc4n3)c3ccccc3n5-c3ncccn3)ccc2C1` [Example 100, 2-[(2-methyl-1,2,3,4-tetrahydroisoquinolin-6-yl)amino]-7-(pyrimidin-2-yl)pyrimido[4′,5′:4,5]pyrimido[1,2-b]indazol-5(7H)-one] showed a negative logarithm of the IC50 (pIC50) against Wee1 kinase of 8.29. In experiment [1], the pEC50 was 7.28.

Consider `Cc1cc(Nc2ncc3c(=O)n4c(nc3n2)c2ccccc2n4-c2ncccn2)ccc1OCCN(C)C` [Example 90, 2-({4-[2-(dimethylamino)ethoxy]-3-methylphenyl}amino)-7-(pyrimidin-2-yl)pyrimido[4′,5′:4,5]pyrimido[1,2-b]indazol-5(7H)-one], for which the pIC50 on Wee1 kinase was 7.52. In experiment [1], the negative logarithm of the EC50 (pEC50) is 6.60.

For the compound `CN1CCN(c2ccc(Nc3ncc4c(=O)n5c(nc4n3)c3ccccc3n5-c3ncccn3)cc2)CC1` [Example 62, 2-{[4-(4-methylpiperazin-1-yl)phenyl]amino}-7-(pyrimidin-2-yl)pyrimido[4′,5′:4,5]pyrimido[1,2-b]indazol-5(7H)-one], the pIC50 at Wee1 kinase was 7.42.

`CN1CCC(C)(c2ccc(Nc3ncc4c(=O)n5c(nc4n3)c3ccccc3n5-c3ncccn3)cc2)CC1` [Example 88, 2-{[4-(1,4-dimethylpiperidin-4-yl)phenyl]amino}-7-(pyrimidin-2-yl)pyrimido[4′,5′:4,5]pyrimido[1,2-b]indazol-5(7H)-one] showed a pIC50 on Wee1 kinase of 7.59.

For the compound `CN(C)CCCOc1ccc(Nc2ncc3c(=O)n4c(nc3n2)c2ccccc2n4-c2nccs2)cc1` [Example 121, 2-({4-[3-(dimethylamino)propoxy]phenyl}amino)-7-(1,3-thiazol-2-yl)pyrimido[4′,5′:4,5]pyrimido[1,2-b]indazol-5(7H)-one], the pIC50 on Wee1 kinase is 7.64.

On Wee1 kinase, `CN1CCN(c2ccc(Nc3ncc4c(=O)n5c(nc4n3)c3ccccc3n5-c3cscn3)cc2)CC1` [Example 146, 2-{[4-(4-methylpiperazin-1-yl)phenyl]amino}-7-(1,3-thiazol-4-yl)pyrimido[4′,5′:4,5]pyrimido[1,2-b]indazol-5(7H)-one] had a negative logarithm of the IC50 (pIC50) of 7.89.

Consider `CN(C)Cc1ccc(Nc2ncc3c(=O)n4c(nc3n2)c2ccccc2n4-c2ncccn2)cc1` [Example 91, 2-({-4-[(dimethylamino)methyl]phenyl}amino)-7-(pyrimidin-2-yl)pyrimido[4′,5′:4,5]pyrimido[1,2-b]indazol-5(7H)-one], for which, on Wee1 kinase, the negative-log IC50 (pIC50) was 7.47.

For the origin of these results see patent US8288396B2, “Pyrimidopyrimidoindazole derivative” (MSDKK, priority 2009, dated 2012).
